Source: PMC9851200, “Multiparameter phenotypic screening for endogenous TFEB and TFE3 translocation identifies novel chemical series modulating lysosome function” (Autophagy, 2022)
Like-named read-outs stand apart in the source and are kept apart here.

Experiments:
Conditions in all cases: PKIS2 primary screening
endogenous TFEB = experiment: TFEB nuclear translocation, immunocytochemistry high-content imaging; type: cell-based
endogenous TFE3 = experiment: TFE3 nuclear translocation, immunocytochemistry high-content imaging; type: cell-based
SH-SY5Y cells [1] = tested on: SH-SY5Y cells; also: reference of the scale not given here
SH-SY5Y cells [2] = experiment: AK (adenylate kinase) release ToxiLight cytotoxicity assay; also: reference of the scale not given here
SH-SY5Y cells [3] = experiment: Nuclear count from microscopy images (cellular growth and toxicity); also: reference of the scale not given here

Row | Structure (SMILES) | TFEB % (endogenous TFEB) [%] | TFE3 % (endogenous TFE3) [%] | DQ Intensity (SH-SY5Y cells [1]; DQ Red BSA intensity) | DQ Spot (SH-SY5Y cells [1]; DQ Red BSA spot count) | AK (SH-SY5Y cells [2]) | Nuclear Count (SH-SY5Y cells [3]) | DQ Intensity (SH-SY5Y cells [1]) | DQ Spot (SH-SY5Y cells [1])
1 | Nc1nc(-c2ccc3c(N)n[nH]c3c2)cc(N2CCCCC2)n1 [GSK2228768] | 3.41 | 12.52 | 114.62 | 125.41 | 117.34 | 85.37 | – | –
2 | Nc1cccc(-c2ccc3c(N)n[nH]c3c2)c1 [GSK2193613] | 4.96 | 9.08 | 55.67 | 76.28 | 94.13 | 112.12 | – | –
3 | COc1cccc(CC(=O)N2CCc3cc(-c4cn(C)c5ncnc(N)c45)ccc32)c1 [UNC10224987A] | 11.97 | 10.50 | – | – | 97.56 | 115.64 | 104.40 | 98.28
4 | CNc1nccc(-c2ccc3c(N)n[nH]c3c2)n1 [GSK2206003] | 3.51 | 14.62 | 68.32 | 96.17 | 89.67 | 71.44 | – | –
5 | Nc1nc(-c2nccs2)c(-c2ccnc3ccccc23)s1 [UNC10225429A] | 3.83 | 19.15 | 102.85 | 117.25 | 94.26 | 118.67 | – | –
6 | Cc1ccc(Nc2ccnc(Nc3ccc4c(c3)CS(=O)(=O)C4)n2)cc1O [GW579362] | 7.59 | 18.94 | 160.36 | 117.73 | 117.18 | 72.17 | – | –
7 | C[C@@H]1CC[C@@H](C(=O)Nc2ccccc2)CN1c1cc(-c2ccc3c(N)n[nH]c3c2)nc(N)n1 [GSK2286062] | 4.27 | 8.18 | 74.11 | 77.23 | 87.26 | 138.15 | – | –
8 | Cc1c(O)cccc1Nc1ccnc2ccc(C(F)(F)F)cc12.Cl [UNC10225099A] | 9.28 | 5.56 | 122.68 | 95.32 | 102.37 | 127.64 | – | –
9 | CS(=O)(=O)Nc1ccc(-c2ccnc3[nH]ccc23)cc1 [UNC10225427A] | 2.64 | 8.99 | 61.89 | 80.51 | 106.42 | 134.12 | – | –
10 | CC(C)c1ccc(O)cc1Nc1ccnc2ccc(C(F)(F)F)cc12 [UNC10225322A] | 7.26 | 14.84 | 103.64 | 104.80 | 93.97 | 91.30 | – | –
11 | CN1CCN(CCCNc2nccc(-c3c(-c4ccc(F)cc4)nn4cc(C(N)=O)ccc34)n2)CC1 [UNC10225188A] | 6.08 | 19.47 | – | – | 105.02 | 94.19 | 87.92 | 111.81
12 | CNc1nc(-c2ccc3c(N)n[nH]c3c2)cc(N2C[C@@H](C(=O)NC3CCCCC3)OC[C@H]2C)n1 [GSK2375584] | 4.51 | 6.46 | 111.29 | 104.60 | 76.99 | 127.70 | – | –
13 | Cl.Cl.NCC(NC(=O)c1cc(-c2cccnc2)c(-c2ccnc3[nH]ccc23)s1)c1ccccc1 (stereo not drawn) [UNC10225315A] | 2.45 | 8.64 | 78.29 | 90.57 | 87.17 | 113.28 | – | –
14 | COc1ccc(-n2cnc3c(N)ncnc32)cc1 [UNC10225413A] | 5.09 | 13.51 | – | – | 68.21 | 102.02 | 106.51 | 108.81
15 | Cc1cccc(Nc2nc(N[C@H]3CCCC[C@H]3N)ncc2C(N)=O)c1.Cl [UNC10225280A] | 7.12 | 21.69 | – | – | 87.17 | 90.29 | 129.29 | 106.20
16 | O=c1cc(N2CCOCC2)nc2n(Cc3ccccc3F)ccn12 [UNC10225231A] | 4.37 | 8.12 | – | – | 121.63 | 97.25 | 110.36 | 111.39
17 | COCCNC(=O)c1ccc(-c2cc(C(=O)NC3CC3)cc(F)c2C)cc1 [UNC10225229A] | 15.26 | 7.62 | – | – | 73.51 | 111.58 | 100.76 | 101.89
18 | Cn1cncc1C(=O)NC1CCN(c2ccnc(Nc3ccc(F)cc3)n2)C1 (stereo not drawn) [GSK1379717] | 3.86 | 10.47 | 84.19 | 97.80 | 113.98 | 85.90 | – | –

Row | Structure (SMILES) | TFEB % (endogenous TFEB) [%] | TFE3 % (endogenous TFE3) [%] | DQ Intensity (SH-SY5Y cells [1]; DQ Red BSA intensity) | DQ Spot (SH-SY5Y cells [1]; DQ Red BSA spot count) | AK (SH-SY5Y cells [2]) | Nuclear Count (SH-SY5Y cells [3]) | DQ Intensity (SH-SY5Y cells [1]) | DQ Spot (SH-SY5Y cells [1])
19 | O=c1cc(N2CCOCC2)nc2n(Cc3cccc(Cl)c3Cl)c3ccccc3n12 [UNC10225136A] | 3.50 | 23.04 | – | – | 86.64 | 90.29 | 100.81 | 121.13
20 | COC(=O)c1cccc(NC(=O)NC2CCN(c3ccnc(Nc4cc(OC)c(OC)c(OC)c4)n3)C2)c1 (stereo not drawn) [GSK1379767] | 5.97 | 6.50 | 85.74 | 95.59 | 115.43 | 122.32 | – | –
21 | COc1cc2ncn(-c3cc(OCc4ccncc4)c(C(N)=O)s3)c2cc1OC [UNC10225069A] | 3.88 | 7.35 | – | – | 99.11 | 104.39 | 66.90 | 87.03
22 | Cc1ccc(NC(=O)c2cccc(N3CCCCC3)c2)cc1-c1ccc(C(=O)NCC2CC2)cc1 [UNC10225021A] | 6.38 | 7.57 | – | – | 68.90 | 118.95 | 102.66 | 94.61
23 | Cn1cc(-c2ccc3c(c2)CCN3C(=O)Cc2cc(F)cc(C(F)(F)F)c2)c2c(N)ncnc21 [UNC10225478A] | 5.80 | 18.35 | – | – | 72.42 | 95.63 | 103.20 | 103.08
24 | COC(=O)C(NC(=O)NC1CCN(c2ccnc(Nc3ccc(F)cc3)n2)C1)c1ccccc1 (stereo not drawn) [GSK1379712] | 9.98 | 6.91 | 132.02 | 102.90 | 111.30 | 98.27 | – | –
25 | COC(=O)c1cccc(NC(=O)NC2CCN(c3ccnc(Nc4ccc(F)cc4)n3)C2)c1 (stereo not drawn) [GSK1379725] | 7.57 | 21.26 | 80.47 | 88.32 | 90.74 | 95.32 | – | –
26 | Cl.O=S(=O)(c1cccc(F)c1)c1ccc(Nc2ncnc3cc(Br)sc23)cc1Cl [UNC10224990A] | 10.77 | 13.25 | 81.12 | 105.16 | 136.08 | 81.79 | – | –
27 | COc1ccc(CNC(=O)NC2CCN(c3ccnc(Nc4ccc(F)cc4)n3)C2)cc1 (stereo not drawn) [GSK1379706] | 2.94 | 11.64 | 67.21 | 81.58 | 89.40 | 119.74 | – | –
28 | CC(=O)c1c(-c2ccncc2)[nH]c(-c2ccncc2)c1C [UNC10225248A] | 5.93 | 12.82 | – | – | 107.07 | 71.54 | 75.03 | 97.66
29 | CCCc1ccc(S(=O)(=O)NC2CCN(c3ccnc(Nc4ccc(F)cc4)n3)C2)cc1 (stereo not drawn) [GSK1379715] | 6.97 | 11.31 | 80.29 | 105.29 | 100.57 | 97.10 | – | –
30 | COc1ccc(Nc2nccc(N3CCC(NC(=O)c4cccc(NC(C)=O)c4)C3)n2)cc1 (stereo not drawn) [GSK1379732] | 5.92 | 6.22 | 114.89 | 106.49 | 83.81 | 135.73 | – | –
31 | Nc1n[nH]c2cc(-c3ccccn3)ccc12 [GSK2189892] | 8.33 | 11.18 | 114.80 | 107.54 | 114.93 | 100.38 | – | –
32 | COC(=O)Nc1nc2ccc(Oc3ccc(NC(=O)Nc4cccc(SC)c4)cc3)cc2[nH]1 [GW697999] | 5.11 | 19.88 | 145.78 | 122.82 | 75.30 | 71.32 | – | –
33 | O=C(c1ccc(-c2cc(-c3c[nH]nc3-c3ccccn3)ccn2)cc1)N1CCCC1 [UNC10225230A] | 9.58 | 11.53 | 81.19 | 99.92 | 75.56 | 86.33 | – | –
34 | COc1ccc(Nc2ncc(C#N)c(Nc3ccccc3C(N)=O)n2)cc1N1CCN(C)CC1 [GSK1558669] | 5.16 | 11.88 | 142.11 | 120.07 | 96.14 | 62.25 | – | –
35 | Cc1ccc2c(-c3ccnc(Nc4ccc(C(F)(F)F)cc4)n3)cnn2n1 [UNC10225224A] | 10.89 | 15.88 | – | – | 79.85 | 89.44 | 85.12 | 93.95
